Read-outs that look alike come from different tables or passages of the source.
Legend:
Tadpole = Tadpole loss of righting (LRR) and loss of swimming (LSR) reflexes; assay type: in vivo; details: ± SEM
Description: Table 3 discloses the anesthetic effects of the compounds of the present disclosure. In particular, the anesthetic effect of the compounds of the present disclosure on Loss of Righting Reflex (LRR) and Loss of Swimming Reflex (LSR).
Methods used are known in the art (see Jiang, X., et al.). Error limits are calculated as standard error of the mean (N=10 or more animals at each of five or more different concentrations).

[1] = molecular target: rat α1β2γ2L type GABAA receptors expressed in Xenopus laevis oocytes (Rattus norvegicus (Rat), UniProt P62813+P63138, INS375LLRMFSFK); assay: Potentiation of GABA-mediated chloride currents, oocyte electrophysiology; assay type: cell-based; details: ± SEM; for Oocyte electrophysiology 0.1 μM (ratio of currents in presence/absence of compound): 0.1 μM compound; for Oocyte electrophysiology 0.1 μM (ratio of currents in presence/absence of compound) / Oocyte electrophysiology 1.0 μM (ratio of currents in presence/absence of compound) / Oocyte electrophysiology 10 μM (ratio of currents in presence/absence of compound): 2 μM GABA, N>=4; for Oocyte electrophysiology 1.0 μM (ratio of currents in presence/absence of compound): 1.0 μM compound; for Oocyte electrophysiology (gating) 10 μM (ratio of compound only current/2 μM GABA current): 10 μM compound in the absence of GABA; for Oocyte electrophysiology 10 μM (ratio of currents in presence/absence of compound): 10 μM compound
Description: The compounds of the present disclosure were evaluated for the ability to potentiate chloride currents mediated by 2 μM GABA at rat α1β2γ2L type GABAA receptors expressed in Xenopus laevis oocytes and the results are shown in Table 2.
The GABA concentration used for the control response was 2 μM. Each compound was evaluated on at least four different oocytes at the concentrations indicated, and the results reported are the ratio of currents measured in the presence/absence of added compound. Gating represents direct current gated by 10 μM compound in the absence of GABA, and this current is reported as the ratio of compound only current/2 μM GABA current. Error limits are calculated as standard error of the mean (N≧4). Methods used are known in the art (see Jiang, X., et al.).

[2] = molecular target: picrotoxin binding site on GABAA receptors; assay: [35S]-TBPS displacement (inhibition of [35S]-TBPS binding); details: mean ± SEM, duplicate experiments performed in triplicate
Description: The IC50 values for non-competitive displacers of [^35S]-TBPS from the picrotoxin binding site on GABAA receptors are reported in Table 1.
Results presented are from duplicate experiments performed in triplicate. Error limits are calculated as standard error of the mean. Methods used are known in the art (see Jiang, X., et al., Neurosteroid analogues. 9. Conformationally constrained pregnanes: structure-activity studies of 13,24-cyclo-18,21-dinorcholane analogues of the GABA modulatory and anesthetic steroids (3α,5α)- and […]. J. Med. Chem., 46: 5334-48 (2003)—the contents of which are hereby incorporated by reference in their entirety).

[3] = loss of righting reflex, read-out: Tadpole LRR EC50
[4] = loss of swimming reflex, read-out: Tadpole LSR EC50

SMILES	melting point	EC50 (Tadpole; [3])	EC50 (Tadpole; [4])	Oocyte electrophysiology 0.1 μM (ratio of currents in presence/absence of compound) [1]	Oocyte electrophysiology 1.0 μM (ratio of currents in presence/absence of compound) [1]	Oocyte electrophysiology (gating) 10 μM (ratio of compound only current/2 μM GABA current) [1]	Oocyte electrophysiology 10 μM (ratio of currents in presence/absence of compound) [1]	IC50 [2]
C[C@]12C[C@H]3CC[C@@H]4C[C@@H](O)CC[C@H]4[C@@H]3C[C@@H]1CC[C@@H]2C#N	162 to 164 °C							
CC(=O)[C@H]1CC[C@H]2C[C@@H]3[C@H](CC[C@@H]4C[C@@H](O)CC[C@H]43)C[C@@]21C	131 to 133 °C							
C[C@@]12CC[C@H](O)C[C@H]1CC[C@@H]1C[C@]3(C)C(=O)CC[C@H]3C[C@H]12	179 to 181 °C							
C[C@]12CC(=O)C[C@@H]1C[C@H]1[C@@H](CC[C@H]3C[C@H](O)CC[C@@H]31)C2	165 to 166 °C							
C[C@@]12C[C@@H]3CC[C@@H]4C[C@H](O)CC[C@@H]4[C@H]3C[C@H]1CC[C@]21CO1	163 to 165 °C							
C[C@]12C[C@H]3CC[C@@H]4C[C@@H](O)CC[C@H]4[C@@H]3C[C@@H]1CC[C@@H]2[N+](=O)[O-]	157 to 159 °C							
C[C@]12C[C@H]3CC[C@@H]4C[C@@H](O)CC[C@H]4[C@@H]3C[C@@H]1CC/C2=C/C#N [MQ-31]		430 ± 80 nM	1040 nM	1.49 ± 0.09	3.93 ± 0.20	0.02 ± 0.02	8.25 ± 0.71	61 ± 4 nM
C[C@]12C[C@H]3CC[C@@H]4C[C@@H](O)CC[C@H]4[C@@H]3C[C@@H]1CC/C2=C\C#N [MQ-32]		360 ± 130 nM	1070 nM	1.64 ± 0.02	3.21 ± 0.13	0.12 ± 0.01	8.77 ± 1.65	147 ± 9 nM
C[C@]12C[C@H]3CC[C@@H]4C[C@@H](O)CC[C@H]4[C@@H]3C[C@@H]1CC[C@@H]2[N+](=O)[O-] [MQ-33]		240 ± 10 nM	550 ± 10 nM	1.68 ± 0.10	5.30 ± 0.75	0.02 ± 0.01	9.08 ± 1.83	62 ± 6 nM
C[C@]12C[C@H]3CCC4C[C@@H](O)CC[C@H]4[C@@H]3C[C@@H]1CCC2=O (some centres unmarked) [MQ-36]		7900 ± 4450 nM	> 30000 nM	1.11 ± 0.09	1.22 ± 0.05	−0.06 ± 0.06	3.81 ± 0.45	1730 nM
C[C@]12C[C@H]3CC[C@@H]4C[C@@H](O)CCC4C3CC1CC[C@@]21CO1 (some centres unmarked) [MQ-37]		160 nM	540 ± 10 nM	1.91 ± 0.17	16.12 ± 2.24	0.54 ± 0.44	27.57 ± 5.45	46 ± 4 nM
C[C@]12C[C@H]3CC[C@@H]4C[C@@H](O)CC[C@H]4[C@@H]3C[C@@H]1CC[C@@H]2C#N [MQ-38]		380 ± 60 nM	870 nM	1.51 ± 0.19	6.92 ± 1.29	0.51 ± 0.48	12.50 ± 1.98	52 ± 7 nM
CC(=O)[C@H]1CCC2CC3C(CCC4C[C@H](O)CCC43)C[C@@]21C (some centres unmarked) [MQ-39]		340 nM	1070 nM	1.32 ± 0.03	3.82 ± 0.36	0.03 ± 0.0	7.91 ± 0.64	65 ± 7 nM
C[C@@]12CC3CC[C@H]4C[C@H](O)CCC4C3CC1CCC2=O (some centres unmarked) [MQ-47]		3760 ± 5220 nM	> 10000 nM	1.10 ± 0.20	1.50 ± 0.28	−0.01 ± 0.03	6.42 ± 1.11	1330 nM
C[C@]12CC(=O)CC1CC1C(CCC3C[C@H](O)CCC31)C2 (some centres unmarked) [MQ-48]		2390 ± 280 nM	7490 nM	1.03 ± 0.01	1.64 ± 0.06	0.01 ± 0.0	7.10 ± 1.51	282 ± 197 nM
C[C@@]12CC3CCC4C[C@H](O)CCC4C3CC1CC[C@H]2C#N (some centres unmarked) [MQ-49]		2400 ± 760 nM	5480 ± 120 nM	0.92 ± 0.01	1.02 ± 0.01	0.02 ± 0.01	1.86 ± 0.06	1580 nM
CC(=O)[C@@H]1CC[C@@H]2C[C@H]3[C@@H](CC[C@H]4C[C@H](O)CC[C@@H]43)C[C@]21C [MQ-50]		2010 ± 1300 nM	10000 nM	1.02 ± 0.01	1.18 ± 0.02	0.0 ± 0.0	1.98 ± 0.07	1060 nM
C[C@@]12C[C@@H]3CC[C@@H]4C[C@H](O)CC[C@@H]4[C@H]3C[C@H]1CCC2=O [MQ-51]		> 10000 nM	> 10000 nM	0.97 ± 0.03	1.02 ± 0.02	0.08 ± 0.08	1.59 ± 0.11	5860 nM
C[C@@]12CC3CCC4C[C@H](O)CCC4C3CC1CC[C@]21CO1 (some centres unmarked) [MQ-54]		3340 ± 110 nM	5480 ± 200 nM	1.01 ± 0.05	4.03 ± 0.31	0.05 ± 0.01	11.41 ± 1.18	1990 nM
C[C@@]12CC[C@H](O)C[C@@H]1CC[C@@H]1C[C@]3(C)C(=O)CCC3C[C@H]12 (some centres unmarked) [MQ-83]		2190 ± 440 nM	5480 ± 120 nM	0.85 ± 0.07	1.03 ± 0.06	0.1 ± 0.2	6.35 ± 0.81	748 ± 103 nM
C[C@@]12CC[C@@H](O)C[C@@H]1CC[C@H]1C[C@@]3(C)[C@H](CC[C@@]34CO4)C[C@@H]12 [MQ-85]		350 ± 20 nM	550 ± 10 nM	2.08 ± 0.23	9.59 ± 1.77	0.10 ± 0.02	17.18 ± 3.31	29 ± 7 nM
C[C@@]12CC[C@H](O)C[C@H]1CC[C@@H]1C[C@]3(C)C(C#N)=CCC3CC12 (some centres unmarked) [MQ-86]		380 ± 50 nM	550 ± 10 nM	2.25 ± 0.11	10.95 ± 1.05	0.16 ± 0.03	19.64 ± 2.06	43 ± 3 nM
C[C@@]12CC[C@H](O)C[C@H]1CC[C@@H]1C[C@@]3(C)C(CC[C@@H]3C#N)CC12 (some centres unmarked) [MQ-87]		100 ± 10 nM	330 nM	1.93 ± 0.14	10.95 ± 0.55	0.04 ± 0.01	16.10 ± 0.87	14 ± 2 nM

Reference: patent US9365502B2, “Neuroactive substituted cyclopenta[b]phenanthrenes as modulators for GABA type-A receptors” (priority 2013, dated 2016)
